Data from patent US20260132132A1, “3A,4,5,6-TETRAHYDRO-1 H-PYRAZOLO[3,4-C]PYRIDIN-7(7AH)-ONE DERIVATIVES AS FACTOR XIIA INHIBITORS” (KALVISTA PHARMACEUTICALS LIMITED, priority 2022, published 2026).

Key:
[1] = biological target: T1, Human Factor XIIa (hFXIIa) (Homo sapiens, UniProt P00748); assay: Determination of Human Factor XIIa (hFXIIa) inhibition, fluorogenic substrate IC50 assay; assay type: biochemical; details: fluorogenic substrate H-DPro-Phe-Arg-AFC at Km, 25° C., read-out: Human FXIIa IC50
T1 construct: purchased Enzyme Research Laboratories
T1 sequence (P00748 373-615 limits assumed): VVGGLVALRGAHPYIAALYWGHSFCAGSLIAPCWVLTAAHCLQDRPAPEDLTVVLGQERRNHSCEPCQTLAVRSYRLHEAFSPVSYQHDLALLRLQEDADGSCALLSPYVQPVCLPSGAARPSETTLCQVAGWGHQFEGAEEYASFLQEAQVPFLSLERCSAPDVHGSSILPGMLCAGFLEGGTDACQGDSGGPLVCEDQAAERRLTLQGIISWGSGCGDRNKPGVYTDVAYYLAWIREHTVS
T1 sequence (P00748 20-372 partner limits assumed): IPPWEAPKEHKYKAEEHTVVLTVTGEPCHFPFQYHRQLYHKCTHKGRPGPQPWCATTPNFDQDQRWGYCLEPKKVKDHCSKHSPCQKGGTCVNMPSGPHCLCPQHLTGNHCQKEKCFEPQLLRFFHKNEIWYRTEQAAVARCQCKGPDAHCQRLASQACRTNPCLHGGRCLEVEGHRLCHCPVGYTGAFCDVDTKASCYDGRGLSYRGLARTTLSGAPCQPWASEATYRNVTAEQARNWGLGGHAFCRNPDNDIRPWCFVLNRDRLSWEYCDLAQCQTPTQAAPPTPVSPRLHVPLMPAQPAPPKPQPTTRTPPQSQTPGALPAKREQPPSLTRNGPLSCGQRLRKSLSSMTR
Description: Determination of Human Factor XIIa (hFXIIa) inhibition
The Km for the cleavage of the substrate by hFXIIa was determined by standard transformation of the Michaelis-Menten equation, with subsequent inhibition assays performed at substrate Km concentration.

FXa = FXa (Homo sapiens, UniProt P00742); assay: Related protease inhibition: FXa, fluorogenic substrate; assay type: biochemical; details: fluorogenic substrate at Km, 25° C.; H1-H3 = % activity at 40 μM
FXa, sequence (P00742 235-488 limits assumed): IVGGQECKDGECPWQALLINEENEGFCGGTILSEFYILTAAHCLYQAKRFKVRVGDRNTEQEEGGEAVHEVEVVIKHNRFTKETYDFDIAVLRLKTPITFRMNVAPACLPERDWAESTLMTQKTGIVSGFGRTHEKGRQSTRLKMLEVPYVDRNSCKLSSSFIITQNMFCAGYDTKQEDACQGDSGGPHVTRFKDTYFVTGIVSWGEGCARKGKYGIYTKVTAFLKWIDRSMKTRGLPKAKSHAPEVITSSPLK
FXa, sequence (P00742 41-179 partner limits assumed): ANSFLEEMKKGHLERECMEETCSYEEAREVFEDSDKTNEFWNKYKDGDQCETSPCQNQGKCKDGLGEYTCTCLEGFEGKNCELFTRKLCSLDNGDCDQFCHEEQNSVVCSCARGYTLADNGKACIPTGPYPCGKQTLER
Description: Human serine protease enzyme Plasma Kallikrein, KLK1, FXa, Plasmin, Thrombin and Trypsin were assayed for enzymatic activity using an appropriate fluorogenic substrate at Km concentration, FXIa at fixed substrate concentration of 100 μM and various concentrations of the test compound.

COCCN1CCc2ccc(N3CCc4c(C(=O)NCC5CC5)nn(-c5cccc(Cl)c5)c4C3=O)cc2C1=O [Example 1261, 1-(3-chlorophenyl)-N-(cyclopropylmethyl)-6-(2-(2-methoxyethyl)-1-oxo-1,2,3,4-tetrahydroisoquinolin-7-yl)-7-oxo-4,5,6,7-tetrahydro-1H-pyrazolo[3,4-c]pyridine-3-carboxamide]
IC50 [1]: 300 to 1000 nM
IC50 (FXa): > 40000 nM

O=C(NCc1cnccc1Cl)c1nn(-c2cccc(Cl)c2)c2c1CCN(c1ccc3c(c1)CN(CCO)CC3)C2=O [Example 1154, 1-(3-chlorophenyl)-N-((4-chloropyridin-3-yl)methyl)-6-(2-(2-hydroxyethyl)-1,2,3,4-tetrahydroisoquinolin-7-yl)-7-oxo-4,5,6,7-tetrahydro-1H-pyrazolo[3,4-c]pyridine-3-carboxamide]
IC50 [1]: 10 to 100 nM
IC50 (FXa): 10000 to 40000 nM

CN1CCc2ccc(N3CCc4c(C(=O)NC5(C)CC5)nn(-c5cccc(Cl)c5)c4C3=O)cc2C1=O [Example 1359, 1-(3-chlorophenyl)-6-(2-methyl-1-oxo-1,2,3,4-tetrahydroisoquinolin-7-yl)-N-(1-methylcyclopropyl)-7-oxo-4,5,6,7-tetrahydro-1H-pyrazolo[3,4-c]pyridine-3-carboxamide]
IC50 [1]: 300 to 1000 nM
IC50 (FXa): > 40000 nM

Cc1nc2c(C(=O)O)nn(-c3cccc(Cl)c3)c2c(=O)n1-c1ccc2c(c1)C(=O)N(CCO)CC2 [Example 3018, 1-(3-chlorophenyl)-6-(2-(2-hydroxyethyl)-1-oxo-1,2,3,4-tetrahydroisoquinolin-7-yl)-5-methyl-7-oxo-6,7-dihydro-1H-pyrazolo[4,3-d]pyrimidine-3-carboxylic acid]
IC50 [1]: 1000 to 3000 nM
IC50 (FXa): 10000 to 40000 nM

CCN1CCc2ccc(N3CCc4c(C(=O)N[C@H](CO)c5ccccc5)nn(-c5cccc(Cl)c5)c4C3=O)cc2C1 [Example 1051, (S)-1-(3-chlorophenyl)-6-(2-ethyl-1,2,3,4-tetrahydroisoquinolin-7-yl)-N-(2-hydroxy-1-phenylethyl)-7-oxo-4,5,6,7-tetrahydro-1H-pyrazolo[3,4-c]pyridine-3-carboxamide]
IC50 [1]: 10 to 100 nM
IC50 (FXa): 3000 to 10000 nM

COc1cncc(CNC(=O)c2nn(-c3cccc(Cl)c3)c3c2CCN(c2ccc4c(c2)CN(CCO)CC4)C3=O)c1 [Example 1141, 1-(3-chlorophenyl)-6-(2-(2-hydroxyethyl)-1,2,3,4-tetrahydroisoquinolin-7-yl)-N-((5-methoxypyridin-3-yl)methyl)-7-oxo-4,5,6,7-tetrahydro-1H-pyrazolo[3,4-c]pyridine-3-carboxamide]
IC50 [1]: 10 to 100 nM
IC50 (FXa): 3000 to 10000 nM

Cc1cc(CNC(=O)c2nn(-c3cccc(Cl)c3)c3c2CCN(c2ccc4c(c2)C(=O)N(C)CCO4)C3=O)nn1C [Example 1319, 1-(3-chlorophenyl)-N-((1,5-dimethyl-1H-pyrazol-3-yl)methyl)-6-(4-methyl-5-oxo-2,3,4,5-tetrahydrobenzo[f][1,4]oxazepin-7-yl)-7-oxo-4,5,6,7-tetrahydro-1H-pyrazolo[3,4-c]pyridine-3-carboxamide]
IC50 [1]: 10 to 100 nM
IC50 (FXa): 1000 to 3000 nM

CN1CCc2ccc(N3CCc4c(C(=O)N5CCC5)nn(-c5cccc(Cl)c5)c4C3=O)cc2C1=O [Example 1335, 7-(3-(azetidine-1-carbonyl)-1-(3-chlorophenyl)-7-oxo-1,4,5,7-tetrahydro-6H-pyrazolo[3,4-c]pyridin-6-yl)-2-methyl-3,4-dihydroisoquinolin-1(2H)-one]
IC50 [1]: 1000 to 3000 nM
IC50 (FXa): > 40000 nM

Cc1ccncc1CNC(=O)c1nn(-c2cccc(Cl)c2)c2c(=O)n(-c3ccc4c(c3)CN(CCO)CC4)c(C)nc12 [Example 3011, 1-(3-chlorophenyl)-6-(2-(2-hydroxyethyl)-1,2,3,4-tetrahydroisoquinolin-7-yl)-5-methyl-N-((4-methylpyridin-3-yl)methyl)-7-oxo-6,7-dihydro-1H-pyrazolo[4,3-d]pyrimidine-3-carboxamide]
IC50 [1]: 10 to 100 nM
IC50 (FXa): 10000 to 40000 nM

CN1CCc2ccc(N3CCc4c(C(=O)N5CCCO5)nn(-c5cccc(Cl)c5)c4C3=O)cc2C1=O [Example 1343, 7-(1-(3-chlorophenyl)-3-(isoxazolidine-2-carbonyl)-7-oxo-1,4,5,7-tetrahydro-6H-pyrazolo[3,4-c]pyridin-6-yl)-2-methyl-3,4-dihydroisoquinolin-1(2H)-one]
IC50 [1]: 1000 to 3000 nM
IC50 (FXa): 10000 to 40000 nM

CC(=O)N1CCc2ccc(N3CCc4c(C(=O)NCc5cc(C)n(C)n5)nn(-c5cccc(Cl)c5)c4C3=O)cc21 [Example 1304, 6-(1-acetylindolin-6-yl)-1-(3-chlorophenyl)-N-((1,5-dimethyl-1H-pyrazol-3-yl)methyl)-7-oxo-4,5,6,7-tetrahydro-1H-pyrazolo[3,4-c]pyridine-3-carboxamide]
IC50 [1]: 300 to 1000 nM
IC50 (FXa): > 40000 nM

O=C(NCC1CC1)c1nn(-c2cccc(Cl)c2)c2c1CCN(c1ccc3c(c1)C(=O)N(CC1CCOC1)CC3)C2=O (stereo not shown) [Example 1257, 1-(3-chlorophenyl)-N-(cyclopropylmethyl)-7-oxo-6-(1-oxo-2-((tetrahydrofuran-3-yl)methyl)-1,2,3,4-tetrahydroisoquinolin-7-yl)-4,5,6,7-tetrahydro-1H-pyrazolo[3,4-c]pyridine-3-carboxamide]
IC50 [1]: 300 to 1000 nM
IC50 (FXa): > 40000 nM

CN1CCc2ccc(N3CCc4c(C(=O)NCc5cccnn5)nn(-c5cccc(Cl)c5)c4C3=O)cc2C1=O [Example 1202, 1-(3-chlorophenyl)-6-(2-methyl-1-oxo-1,2,3,4-tetrahydroisoquinolin-7-yl)-7-oxo-N-(pyridazin-3-ylmethyl)-4,5,6,7-tetrahydro-1H-pyrazolo[3,4-c]pyridine-3-carboxamide]
IC50 [1]: 300 to 1000 nM
IC50 (FXa): > 40000 nM

CN1CCc2ccc(N3CCc4c(C(=O)NCC5(CO)CC5)nn(-c5cccc(Cl)c5)c4C3=O)cc2C1=O [Example 1250, 1-(3-chlorophenyl)-N-((1-(hydroxymethyl)cyclopropyl)methyl)-6-(2-methyl-1-oxo-1,2,3,4-tetrahydroisoquinolin-7-yl)-7-oxo-4,5,6,7-tetrahydro-1H-pyrazolo[3,4-c]pyridine-3-carboxamide]
IC50 [1]: 300 to 1000 nM
IC50 (FXa): > 40000 nM

CN1CCc2ccc(N3CCc4c(C(=O)NO)nn(-c5cccc(Cl)c5)c4C3=O)cc2C1=O [Example 1347, 1-(3-chlorophenyl)-N-hydroxy-6-(2-methyl-1-oxo-1,2,3,4-tetrahydroisoquinolin-7-yl)-7-oxo-4,5,6,7-tetrahydro-1H-pyrazolo[3,4-c]pyridine-3-carboxamide]
IC50 [1]: 300 to 1000 nM
IC50 (FXa): 3000 to 10000 nM

Cc1cc(CNC(=O)c2nn(-c3cccc(Cl)c3F)c3c2CCN(c2ccc4c(c2)C(=O)N(C)CC4)C3=O)n[nH]1 [Example 2040, 1-(3-chloro-2-fluorophenyl)-6-(2-methyl-1-oxo-1,2,3,4-tetrahydroisoquinolin-7-yl)-N-((5-methyl-1H-pyrazol-3-yl)methyl)-7-oxo-4,5,6,7-tetrahydro-1H-pyrazolo[3,4-c]pyridine-3-carboxamide]
IC50 [1]: 10 to 100 nM
IC50 (FXa): 10000 to 40000 nM

CN1CCc2ccc(N3CCc4c(C(=O)NCC5COC5)nn(-c5cccc(Cl)c5)c4C3=O)cc2C1=O [Example 1339, 1-(3-chlorophenyl)-6-(2-methyl-1-oxo-1,2,3,4-tetrahydroisoquinolin-7-yl)-N-(oxetan-3-ylmethyl)-7-oxo-4,5,6,7-tetrahydro-1H-pyrazolo[3,4-c]pyridine-3-carboxamide]
IC50 [1]: 300 to 1000 nM
IC50 (FXa): > 40000 nM

COCc1cc(CNC(=O)c2nn(-c3cccc(Cl)c3)c3c2CCN(c2ccc4c(c2)CN(CCO)CC4)C3=O)[nH]n1 [Example 1156, 1-(3-chlorophenyl)-6-(2-(2-hydroxyethyl)-1,2,3,4-tetrahydroisoquinolin-7-yl)-N-((3-(methoxymethyl)-1H-pyrazol-5-yl)methyl)-7-oxo-4,5,6,7-tetrahydro-1H-pyrazolo[3,4-c]pyridine-3-carboxamide]
IC50 [1]: 100 to 300 nM
IC50 (FXa): 10000 to 40000 nM

O=C(NCc1cccnc1)c1nn(-c2cccc(Cl)c2)c2c1CCN(c1ccc3c(c1)CN(CCO)CC3)C2=O [Example 1078, 1-(3-chlorophenyl)-6-(2-(2-hydroxyethyl)-1,2,3,4-tetrahydroisoquinolin-7-yl)-7-oxo-N-(pyridin-3-ylmethyl)-4,5,6,7-tetrahydro-1H-pyrazolo[3,4-c]pyridine-3-carboxamide]
IC50 [1]: 10 to 100 nM
IC50 (FXa): 3000 to 10000 nM

Cc1ccncc1CNC(=O)c1nn(-c2cccc(Cl)c2)c2c1CCN(c1ccc3c(c1)C(=O)N(CCO)CCC3)C2=O [Example 1306, 1-(3-chlorophenyl)-6-(2-(2-hydroxyethyl)-1-oxo-2,3,4,5-tetrahydro-1H-benzo[c]azepin-8-yl)-N-((4-methylpyridin-3-yl)methyl)-7-oxo-4,5,6,7-tetrahydro-1H-pyrazolo[3,4-c]pyridine-3-carboxamide]
IC50 [1]: 10 to 100 nM
IC50 (FXa): 10000 to 40000 nM
